Assay results taken from patent US11046710B2, “Sulfonamide compounds” (DAIICHI SANKYO COMPANY, LIMITED, priority 2016, dated 2021).

Biological target: human TNAP (Homo sapiens (Human), UniProt P05186)
Assay: Inhibitory test of TNAP activity (pNPP substrate, p-nitrophenol production)
Format: biochemical
Conditions: human TNAP from transfected COS1 culture supernatant, 60 minutes at room temperature
Method: COS1 cells (DS Pharma Biomedical Co., Ltd.) were transfected with human TNAP (OriGene Technologies, Inc.) using Lipofectamine LTX & Plus reagent (Invitrogen Corp.). On the next day, the medium was replaced with a fresh medium, and the cells were cultured in an incubator for 3 days. After 3 days, the culture supernatant was collected and concentrated by centrifugation at 5000 G for 30 minutes using Amicon 14, 10^4 cut (Merck Millipore). The concentrated culture supernatant was dialyzed against 5 L of 50 mM Tris/200 mM NaCl/1 mM MgCl2/20 μM ZnCl2 twice and used as an enzyme source (enzyme solution). The substrate pNPP (ProteoChem Inc.) was adjusted to 3.1 mM with Milli-Q water, and a solution of each test compound dissolved in dimethyl sulfoxide (DMSO; Wako Pure Chemical Industries, Ltd.) by 6 serial dilutions at a 5-fold common ratio from 100 μM, or DMSO was added thereto at a final concentration of 1% by volume. The enzyme solution adjusted to 2 μg/mL with an assay buffer (200 mM Tris/2 mM MgCl2/0.04 mM ZnCl2/0.01% Tween 20) was added in the same amount of the substrate solution and incubated at room temperature for 60 minutes. Then, the absorbance (ABS: 405 nm) was measured using a microplate reader (model plus 384, Molecular Devices, LLC), and the concentration of produced p-nitrophenol was calculated.

Chain of human TNAP (P05186 18-524): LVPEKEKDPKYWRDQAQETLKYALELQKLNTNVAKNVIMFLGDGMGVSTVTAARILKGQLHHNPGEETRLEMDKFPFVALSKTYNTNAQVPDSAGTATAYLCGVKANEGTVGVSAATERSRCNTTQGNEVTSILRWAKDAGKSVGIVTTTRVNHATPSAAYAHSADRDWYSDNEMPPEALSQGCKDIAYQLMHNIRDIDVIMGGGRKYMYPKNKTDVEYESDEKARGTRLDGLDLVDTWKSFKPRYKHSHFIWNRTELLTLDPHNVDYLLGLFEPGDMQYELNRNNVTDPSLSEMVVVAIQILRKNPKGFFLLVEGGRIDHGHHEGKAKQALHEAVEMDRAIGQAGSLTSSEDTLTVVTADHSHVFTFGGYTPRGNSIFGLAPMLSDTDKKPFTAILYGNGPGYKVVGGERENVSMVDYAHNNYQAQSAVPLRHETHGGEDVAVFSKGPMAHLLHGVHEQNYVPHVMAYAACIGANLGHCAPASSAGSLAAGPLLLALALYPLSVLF

| SMILES | IC50 |
| --- | --- |
| COc1ccc(Cl)cc1S(=O)(=O)Nc1cnc2c(c1)-c1ccnn1[C@@H](C)CO2 [Example 16, 5-chloro-2-methoxy-N-[(5S)-5-methyl-5,6-dihydropyrazolo[1,5-d]pyrido[3,2-f][1,4]oxazepin-10-yl]benzenesulfonamide] | 3.5 nM |
| COc1ccc(Cl)cc1S(=O)(=O)Nc1cnc2c(c1)C(=O)N1C[C@@H](F)C[C@@H]1CO2 [Example 44, 5-chloro-N-[(8S,9aR)-8-fluoro-5-oxo-8,9,9a,10-tetrahydro-5H,7H-pyrido[3,2-f]pyrrolo[2,1-c][1,4]oxazepin-3-yl]-2-methoxybenzenesulfonamide] | 0.8 nM |
| COc1ncc(Cl)cc1S(=O)(=O)Nc1cnc2c(c1)-c1ccnn1[C@H](C)CO2 [Example 23, 5-chloro-2-methoxy-N-[(5R)-5-methyl-5,6-dihydropyrazolo[1,5-d]pyrido[3,2-f][1,4]oxazepin-10-yl]pyridine-3-sulfonamide] | 5.7 nM |
| COc1ccc(Cl)cc1S(=O)(=O)Nc1cnc2c(c1)C(=O)N1C[C@@H](OC)C[C@@H]1CO2 [Example 46, 5-chloro-2-methoxy-N-[(8S,9aR)-8-methoxy-5-oxo-8,9,9a,10-tetrahydro-5H,7H-pyrido[3,2-f]pyrrolo[2,1-c][1,4]oxazepin-3-yl]benzenesulfonamide] | 0.5 nM |
| O=C1COCC2COc3ncc(NS(=O)(=O)c4cc(Cl)ccc4OC(F)(F)F)cc3CN12 (centres unmarked) [Example 63] | 1.4 nM |
| COc1ccc(Cl)cc1S(=O)(=O)Nc1cnc2c(c1)C(=O)N1CCC[C@H]1CO2 [Example 27, 5-chloro-2-methoxy-N-[(9aS)-5-oxo-8,9,9a,10-tetrahydro-5H,7H-pyrido[3,2-f]pyrrolo[2,1-c][1,4]oxazepin-3-yl]benzenesulfonamide] | 13.2 nM |
| COc1ccc(Cl)cc1S(=O)(=O)Nc1cnc2c(c1)CN1C(=O)OC[C@H]1CO2 [Example 58, 5-chloro-2-methoxy-N-[(9aR)-7-oxo-9a,10-dihydro-5H, 9H-[1,3]oxazolo[4,3-c]pyrido[3,2-f][1,4]oxazepin-3-yl]benzenesulfonamide] | 3.8 nM |
| CCOc1ccc(F)cc1S(=O)(=O)Nc1cnc2c(c1)-c1ccnn1CCO2 [Example 9, N-(5,6-dihydropyrazolo[1,5-d]pyrido[3,2-f][1,4]oxazepin-10-yl)-2-ethoxy-5-fluorobenzenesulfonamide] | 3.4 nM |
| COc1ccc(Cl)cc1S(=O)(=O)Nc1cnc2c(c1)C(=O)N1C[C@H](O)C[C@@H]1CO2 [Example 35, 5-chloro-N-[(8R,9aR)-8-hydroxy-5-oxo-8,9,9a,10-tetrahydro-5H,7H-pyrido[3,2-f]pyrrolo[2,1-c][1,4]oxazepin-3-yl]-2-methoxybenzenesulfonamide] | 0.9 nM |
| O=C1c2cc(NS(=O)(=O)c3cc(Cl)ccc3OC(F)(F)F)cnc2OC[C@H]2[C@@H](O)CCN12 [Example 42, 5-chloro-N-[(9S,9aS)-9-hydroxy-5-oxo-8,9,9a,10-tetrahydro-5H,7H-pyrido[3,2-f]pyrrolo[2,1-c][1,4]oxazepin-3-yl]-2-(trifluoromethoxy)benzenesulfonamide] | 0.4 nM |
| COc1ccc(Cl)cc1S(=O)(=O)Nc1cnc2c(c1)C(=O)N1CC[C@H](O)[C@@H]1CO2 [Example 41, 5-chloro-N-[(9S,9aS)-9-hydroxy-5-oxo-8,9,9a,10-tetrahydro-5H,7H-pyrido[3,2-f]pyrrolo[2,1-c][1,4]oxazepin-3-yl]-2-methoxybenzenesulfonamide] | 0.4 nM |
| COc1ccc(Cl)cc1S(=O)(=O)Nc1cnc2c(c1)C(=O)N1CC(F)(F)C[C@@H]1CO2 [Example 45, 5-chloro-N-[(9aR)-8,8-difluoro-5-oxo-8,9,9a,10-tetrahydro-5H,7H-pyrido[3,2-f]pyrrolo[2,1-c][1,4]oxazepin-3-yl]-2-methoxybenzenesulfonamide] | 2 nM |
| CCOc1ccc(F)cc1S(=O)(=O)Nc1cnc2c(c1)-c1ccnn1[C@@H](C)CO2 [Example 18, 2-ethoxy-5-fluoro-N-[(5S)-5-methyl-5,6-dihydropyrazolo[1,5-d]pyrido[3,2-f][1,4]oxazepin-10-yl]benzenesulfonamide] | 2.8 nM |
| CCOc1ncc(F)cc1S(=O)(=O)Nc1cnc2c(c1)-c1ccnn1[C@@H](C)CO2 [Example 24, 2-ethoxy-5-fluoro-N-[(5S)-5-methyl-5,6-dihydropyrazolo[1,5-d]pyrido[3,2-f][1,4]oxazepin-10-yl]pyridine-3-sulfonamide] | 2.3 nM |
| COc1ccc(Cl)cc1S(=O)(=O)Nc1cnc2c(c1)-c1ccnn1CCO2 [Example 7, 5-chloro-N-(5,6-dihydropyrazolo[1,5-d]pyrido[3,2-f][1,4]oxazepin-10-yl)-2-methoxybenzenesulfonamide] | 6.5 nM |
| O=C1c2cc(NS(=O)(=O)c3cc(Cl)ccc3OC(F)(F)F)cnc2OC[C@H]2C[C@H](O)CN12 [Example 32, 5-chloro-N-[(8S,9aR)-8-hydroxy-5-oxo-8,9,9a,10-tetrahydro-5H,7H-pyrido[3,2-f]pyrrolo[2,1-c][1,4]oxazepin-3-yl]-2-(trifluoromethoxy)benzenesulfonamide] | 0.9 nM |
| COc1ccc(F)cc1S(=O)(=O)Nc1cnc2c(c1)C(=O)N1C[C@@H](O)C[C@@H]1CO2 [Example 31, 5-fluoro-N-[(8S,9aR)-8-hydroxy-5-oxo-8,9,9a,10-tetrahydro-5H,7H-pyrido[3,2-f]pyrrolo[2,1-c][1,4]oxazepin-3-yl]-2-methoxybenzenesulfonamide] | 1.2 nM |
| COc1ccc(Cl)cc1S(=O)(=O)Nc1cnc2c(c1)CN1C(=O)COC[C@H]1CO2 [Example 60, 5-chloro-2-methoxy-N-[(10aS)-7-oxo-7,8,10a,11-tetrahydro-5H,10H-[1,4]oxazino[3,4-c]pyrido[3,2-f][1,4]oxazepin-3-yl]benzenesulfonamide] | 3.3 nM |
| COc1ccc(Cl)cc1S(=O)(=O)Nc1cnc2c(c1)CN1C(=O)[C@@H](O)C[C@H]1CO2 [Example 54, 5-chloro-N-[(8S,9aS)-8-hydroxy-7-oxo-8,9,9a,10-tetrahydro-5H,7H-pyrido[3,2-f]pyrrolo[2,1-c][1,4]oxazepin-3-yl]-2-methoxybenzenesulfonamide] | 1.1 nM |
| COc1ccc(Cl)cc1S(=O)(=O)Nc1cnc2c(c1)-n1nccc1CCO2 [Example 26, 5-chloro-N-(4,5-dihydropyrazolo[1,5-d]pyrido[2,3-b][1,4]oxazepin-9-yl)-2-methoxybenzenesulfonamide] | 29.4 nM |
| COc1ccc(F)cc1S(=O)(=O)Nc1cnc2c(c1)C(=O)N1C[C@H](O)C[C@@H]1CO2 [Example 36, 5-fluoro-N-[(8R,9aR)-8-hydroxy-5-oxo-8,9,9a,10-tetrahydro-5H,7H-pyrido[3,2-f]pyrrolo[2,1-c][1,4]oxazepin-3-yl]-2-methoxybenzenesulfonamide] | 1.5 nM |
| COc1ccc(Cl)cc1S(=O)(=O)Nc1cnc2c(c1)CN1C(=O)CC[C@H]1CO2 [Example 52, 5-chloro-2-methoxy-N-[(9aS)-7-oxo-8,9,9a,10-tetrahydro-5H,7H-pyrido[3,2-f]pyrrolo[2,1-c][1,4]oxazepin-3-yl]benzenesulfonamide] | 2.2 nM |
| COCCOc1ccc(F)cc1S(=O)(=O)Nc1cnc2c(c1)-c1ccnn1CCO2 [Example 11, N-(5,6-dihydropyrazolo[1,5-d]pyrido[3,2-f][1,4]oxazepin-10-yl)-5-fluoro-2-(2-methoxyethoxy)benzenesulfonamide] | 12.6 nM |
| O=C1c2cc(NS(=O)(=O)c3cc(F)ccc3OC(F)(F)F)cnc2OC[C@H]2C[C@H](O)CN12 [Example 34, 5-fluoro-N-[(8S,9aR)-8-hydroxy-5-oxo-8,9,9a,10-tetrahydro-5H,7H-pyrido[3,2-f]pyrrolo[2,1-c][1,4]oxazepin-3-yl]-2-(trifluoromethoxy)benzenesulfonamide] | 1.6 nM |
| COc1ccc(Cl)cc1S(=O)(=O)Nc1cnc2c(c1)CN1C(=O)[C@H](O)C[C@H]1CO2 [Example 53, 5-chloro-N-[(8R,9aS)-8-hydroxy-7-oxo-8,9,9a,10-tetrahydro-5H,7H-pyrido[3,2-f]pyrrolo[2,1-c][1,4]oxazepin-3-yl]-2-methoxybenzenesulfonamide] | 4.3 nM |
| COc1ccc(Cl)cc1S(=O)(=O)Nc1cnc2c(c1)C(=O)N1CCC[C@@H]1CO2 [Example 28, 5-chloro-2-methoxy-N-[(9aR)-5-oxo-8,9,9a,10-tetrahydro-5H,7H-pyrido[3,2-f]pyrrolo[2,1-c][1,4]oxazepin-3-yl]benzenesulfonamide] | 1.2 nM |
| CCOc1ccc(F)cc1S(=O)(=O)Nc1cnc2c(c1)CN1C(=O)COC[C@H]1CO2 [Example 61, 2-ethoxy-5-fluoro-N-[(10aS)-7-oxo-7,8,10a,11-tetrahydro-5H,10H-[1,4]oxazino[3,4-c]pyrido[3,2-f][1,4]oxazepin-3-yl]benzenesulfonamide] | 0.6 nM |
| COc1ncc(Cl)cc1S(=O)(=O)Nc1cnc2c(c1)-c1ccnn1CCO2 [Example 12, 5-chloro-N-(5,6-dihydropyrazolo[1,5-d]pyrido[3,2-f][1,4]oxazepin-10-yl)-2-methoxypyridine-3-sulfonamide] | 8.5 nM |
| COc1ccc(Cl)cc1S(=O)(=O)Nc1cnc2c(c1)C(=O)N1C[C@@H](O)C[C@@H]1CO2 [Example 30, 5-chloro-N-[(8S,9aR)-8-hydroxy-5-oxo-8,9,9a,10-tetrahydro-5H,7H-pyrido[3,2-f]pyrrolo[2,1-c][1,4]oxazepin-3-yl]-2-methoxybenzenesulfonamide] | 0.9 nM |
